Data set [1] is filed under the species Homo sapiens. Nature of the data set: Tested for Concentration required for the inhibition of ADP-induced aggregation of human platelets. In kind it is functional.
In data set [2] the target is Prostacyclin receptor (Homo sapiens, UniProt P43119). Kind of data set: Tested for inhibition of 3[H]-iloprost binding to human IP receptor.
Data set [3] is described as follows: Half-life after intravenous administration in female rat. In kind it is ADME, organism-based. As to conditions: in vivo.
A short description of data set [4]: Half-life after intravenous administration in male rat. It is filed as ADME, organism-based. The settings on record: in vivo.
A short description of data set [5]: Oral Bioavailability after administration of 10 mg/kg in male rat. It is filed as ADME, organism-based. As to conditions: in vivo, read-out: Bioavailabiility.
Data set [6] is described as follows: Half-life after administration of 3.2 mg/kg intravenously in male rat. In kind it is ADME, organism-based. More on the design: dose 3.2 mg/kg, route intravenous. As to conditions: in vivo, iv.

Chain of Prostacyclin receptor (P43119 whole entry): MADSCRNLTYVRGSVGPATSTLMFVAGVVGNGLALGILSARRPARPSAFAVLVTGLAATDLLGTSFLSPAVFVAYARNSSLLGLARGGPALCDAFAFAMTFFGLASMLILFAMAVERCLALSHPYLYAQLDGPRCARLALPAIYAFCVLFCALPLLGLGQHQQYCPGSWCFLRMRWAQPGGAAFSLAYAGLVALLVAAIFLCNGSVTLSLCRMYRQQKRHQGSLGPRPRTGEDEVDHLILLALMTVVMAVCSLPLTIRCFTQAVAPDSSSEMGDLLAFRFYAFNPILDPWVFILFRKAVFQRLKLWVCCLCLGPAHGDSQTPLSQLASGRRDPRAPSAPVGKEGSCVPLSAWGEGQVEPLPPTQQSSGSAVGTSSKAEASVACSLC

For orientation: IC50 means the point on the concentration scale where inhibition reaches its midpoint. A low value points to greater potency in that assay. In turn, `O=C(O)COc1cccc2c1CCC(Cn1cc(C(c3ccccc3)c3ccccc3)cn1)=C2` yielded an IC50 in data set [1] of 0.041 µM.

A word on the Ki: it is a dissociation constant, usually derived from enzyme kinetics or from competition with a known ligand. A higher Ki goes with lower affinity. For orientation: half-life means the time in which the quantity being followed falls by half. Read a low half-life as rapid decline. For the molecule `CC#CCC(C)[C@H](O)/C=C/[C@H]1[C@H](O)CC2Oc3c(CCCC(=O)[O-])cccc3[C@@H]21.[Na+]` (some centres not stated), the affinity in data set [2], expressed as Ki, was 0.08 µM. In addition, the results for the half-life in data set [3] and in data set [4] were 3.3 h and 0.43 h, respectively. For the same molecule, the IC50 in data set [1] is 0.0043 µM.

`CCC/C(CC1CCc2c(cccc2OCC(=O)O)C1)=N\OC(c1ccccc1)c1ccccc1` (configuration not stated) [AP-227] returned an IC50 in data set [1] of 0.15 µM.

`O=C(O)COc1cccc2c1CC[C@H](Cn1nc(C(c3ccccc3)c3ccccc3)ccc1=O)C2` gave a Ki in data set [2] of 0.094 µM. The bioavailability in data set [5] turned out to be 56%. For the same molecule, in data set [1], the IC50 worked out at 0.081 µM. The molecule further showed a half-life in data set [6] of 4.3 h.

In data set [1], `O=C(O)COc1cccc2c1CC[C@H](Cn1cccc(C(c3ccccc3)c3ccccc3)c1=O)C2` gave an IC50 above 10 µM.

As to `O=C(O)COc1cccc2c1CC[C@H](Cn1cc(C(c3ccccc3)c3ccccc3)ccc1=O)C2`, inhibition in data set [1] was half-maximal at 0.13 µM (IC50).

The values above are taken from ChEMBL document CHEMBL1132727, “A novel pyridazinone derivative as a nonprostanoid PGI2 agonist” (Bioorg Med Chem Lett, 2000).
